This is an account of results in ChEMBL document CHEMBL4177521, “Therapeutic Potential of Fatty Acid Amide Hydrolase, Monoacylglycerol Lipase, and N-Acylethanolamine Acid Amidase Inhibitors” (J Med Chem, 2017).

Test [1] concerns the target T1, Fatty-acid amide hydrolase 1 (Rattus norvegicus, UniProt P97612).
T1 sequence (P97612 whole entry): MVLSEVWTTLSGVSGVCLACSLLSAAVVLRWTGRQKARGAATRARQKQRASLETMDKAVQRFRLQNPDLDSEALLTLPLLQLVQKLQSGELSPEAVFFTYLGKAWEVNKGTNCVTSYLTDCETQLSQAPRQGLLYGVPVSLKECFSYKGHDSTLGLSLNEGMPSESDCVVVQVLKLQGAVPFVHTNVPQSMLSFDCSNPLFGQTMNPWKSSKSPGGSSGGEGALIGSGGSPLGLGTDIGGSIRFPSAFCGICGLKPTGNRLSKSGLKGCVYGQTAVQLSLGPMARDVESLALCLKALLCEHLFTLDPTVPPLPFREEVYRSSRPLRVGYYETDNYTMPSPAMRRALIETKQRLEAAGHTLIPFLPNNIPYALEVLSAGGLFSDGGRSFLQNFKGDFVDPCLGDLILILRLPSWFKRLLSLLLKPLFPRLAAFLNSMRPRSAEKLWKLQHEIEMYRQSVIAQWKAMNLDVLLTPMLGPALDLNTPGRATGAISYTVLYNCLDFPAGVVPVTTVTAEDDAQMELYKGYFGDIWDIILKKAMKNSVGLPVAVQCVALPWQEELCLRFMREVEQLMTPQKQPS
The test can be described thus: Inhibition of rat FAAH assessed as reduction in [14C]oleamide conversion to oleic acid by Lineweaver-Burk plot analysis.

In test [2] the target is T2, Monoglyceride lipase (Rattus norvegicus, UniProt Q8R431).
T2 sequence (Q8R431 whole entry): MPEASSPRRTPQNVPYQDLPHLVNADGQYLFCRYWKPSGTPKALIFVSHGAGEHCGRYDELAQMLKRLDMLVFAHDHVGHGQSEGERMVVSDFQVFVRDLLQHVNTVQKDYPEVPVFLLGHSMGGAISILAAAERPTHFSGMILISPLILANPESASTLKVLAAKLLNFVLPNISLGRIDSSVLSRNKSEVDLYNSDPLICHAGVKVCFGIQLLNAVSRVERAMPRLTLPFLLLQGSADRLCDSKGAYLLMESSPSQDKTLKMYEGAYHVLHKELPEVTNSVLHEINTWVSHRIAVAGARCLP
The test can be described thus: Inhibition of rat MAGL preincubated for 30 mins followed by FP-Rh addition after 30 mins by gel-based ABPP assay.

For test [3], the target named is T3, Monoglyceride lipase (Mus musculus, UniProt O35678).
T3 sequence (O35678 whole entry): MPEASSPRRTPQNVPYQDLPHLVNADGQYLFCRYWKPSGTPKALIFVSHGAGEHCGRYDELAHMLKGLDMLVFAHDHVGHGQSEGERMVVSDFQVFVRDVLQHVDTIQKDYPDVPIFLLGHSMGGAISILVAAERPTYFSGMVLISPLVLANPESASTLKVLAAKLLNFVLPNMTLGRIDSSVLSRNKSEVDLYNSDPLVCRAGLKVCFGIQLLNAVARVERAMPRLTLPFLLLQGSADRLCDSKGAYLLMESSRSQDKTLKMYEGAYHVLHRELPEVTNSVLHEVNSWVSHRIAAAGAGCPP
Description: Inhibition of mouse MAGL preincubated for 30 mins followed by FP-Rh addition after 30 mins by gel-based ABPP assay.

Test [4] has as its target T1, Fatty-acid amide hydrolase 1. Description: Inhibition of rat FAAH.
Test [5] has the same target. Description: Inhibition of FAAH in Wistar rat brain membranes using [3H]-anandamide as substrate preincubated for 10 mins followed by substrate addition measured after 4 mins by liquid scintillation counting method. The class given is cell membranes, Membrane.
The target in test [6] is T4, N-acylethanolamine-hydrolyzing acid amidase (Homo sapiens, UniProt Q02083).
T4 sequence (Q02083 whole entry): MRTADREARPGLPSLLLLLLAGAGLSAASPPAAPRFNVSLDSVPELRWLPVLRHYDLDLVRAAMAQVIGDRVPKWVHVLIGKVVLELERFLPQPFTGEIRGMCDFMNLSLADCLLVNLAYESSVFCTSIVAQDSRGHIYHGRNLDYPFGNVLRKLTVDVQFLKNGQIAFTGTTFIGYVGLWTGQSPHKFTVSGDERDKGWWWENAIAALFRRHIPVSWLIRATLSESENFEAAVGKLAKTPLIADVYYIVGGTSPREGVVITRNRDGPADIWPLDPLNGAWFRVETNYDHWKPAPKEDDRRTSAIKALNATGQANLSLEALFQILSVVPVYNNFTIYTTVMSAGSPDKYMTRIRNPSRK
Description: Inhibition of recombinant human NAAA expressed in HEK293 cells preincubated for 10 mins followed by PAMCA substrate addition after 30 mins by fluorescence assay. The settings on record: hek293. Format: cell-based.

The target of test [7] is T2, Monoglyceride lipase. The test can be described thus: Inhibition of rat cerebellar membranes MAGL-like activity preincubated for 30 mins followed by 2-AG substrate addition after 90 mins by HPLC analysis. The arrangement: species or system Cerebellum, Membrane.
Test [8] has as its target T1, Fatty-acid amide hydrolase 1. The test can be described thus: Inhibition of Sprague-Dawley rat brain FAAH preincubated for 10 mins followed by [3H]-anandamide substrate addition after 30 mins by liquid scintillation counting method.
Test [9] has as its target T2, Monoglyceride lipase. The test can be described thus: Inhibition of recombinant rat N-terminal histidine tagged MAGL expressed in Escherichia coli Rosetta 2 (DE3) pLysS cells preincubated for 10 mins followed by 2-OG substrate addition after 10 mins by LC/MS analysis.
Test [10] deals with T5, Monoglyceride lipase (Homo sapiens, UniProt Q99685).
T5 sequence (Q99685 whole entry): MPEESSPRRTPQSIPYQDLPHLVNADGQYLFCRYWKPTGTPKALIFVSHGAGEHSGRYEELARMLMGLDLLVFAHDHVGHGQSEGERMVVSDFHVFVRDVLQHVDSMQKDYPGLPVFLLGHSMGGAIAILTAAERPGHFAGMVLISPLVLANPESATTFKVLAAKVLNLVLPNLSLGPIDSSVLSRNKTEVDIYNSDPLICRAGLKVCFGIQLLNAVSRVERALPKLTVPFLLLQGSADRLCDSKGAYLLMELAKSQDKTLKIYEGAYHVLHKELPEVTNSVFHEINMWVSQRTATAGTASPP
Description: Inhibition of recombinant human N-terminal His6-tagged and C-terminal Strep-tagged MAGL expressed in Escherichia coli Rosetta using [3H]2-OG as substrate after 10 mins by liquid scintillation counting method.

Test [11] deals with T3, Monoglyceride lipase. Description: Inhibition of mouse MAGL.
In test [12] the target is T2, Monoglyceride lipase. The test can be described thus: Inhibition of rat MAGL.
Test [13] has as its target T1, Fatty-acid amide hydrolase 1. The test can be described thus: Inhibition of rat brain microsomal FAAH using N-(2-hydroxyethyl)-4-pyren-1-yl-butanamide as substrate after 60 mins by RP HPLC based fluorescence assay.
Test [14] has as its target T6, Fatty-acid amide hydrolase 2 (Homo sapiens, UniProt Q6GMR7).
T6 sequence (Q6GMR7 whole entry): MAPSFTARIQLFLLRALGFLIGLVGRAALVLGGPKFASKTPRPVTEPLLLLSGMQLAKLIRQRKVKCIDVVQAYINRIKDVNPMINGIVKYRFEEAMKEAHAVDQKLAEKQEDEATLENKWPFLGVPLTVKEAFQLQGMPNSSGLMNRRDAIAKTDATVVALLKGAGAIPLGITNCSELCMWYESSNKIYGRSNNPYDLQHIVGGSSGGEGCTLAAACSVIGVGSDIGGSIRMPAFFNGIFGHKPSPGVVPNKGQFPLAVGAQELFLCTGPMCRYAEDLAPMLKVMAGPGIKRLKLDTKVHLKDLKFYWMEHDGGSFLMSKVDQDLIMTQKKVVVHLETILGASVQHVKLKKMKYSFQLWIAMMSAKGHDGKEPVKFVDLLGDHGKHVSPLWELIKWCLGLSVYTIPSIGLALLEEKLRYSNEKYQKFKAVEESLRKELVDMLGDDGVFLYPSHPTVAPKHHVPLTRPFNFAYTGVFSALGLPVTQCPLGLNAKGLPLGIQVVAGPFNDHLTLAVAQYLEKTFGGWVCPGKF
The test can be described thus: Inhibition of recombinant human N-terminal FLAG-tagged/C-terminal Myc-His6 tagged FAAH2 (32 to 579 residues) expressed in COS7 cell membranes. The class given is cell-based.

In general, Ki refers to the equilibrium dissociation constant of an inhibitor or competing ligand from its target. By IC50 is commonly meant the midpoint of a concentration-inhibition curve.

Turning to `O=C(CCCCCCCCc1ccccc1)c1nc2ncccc2o1`, the Ki in [1] is 0.52 nM.
On to `O=C(OC(C(F)(F)F)C(F)(F)F)N1CCC(C(O)(c2ccc3c(c2)OCO3)c2ccc3c(c2)OCO3)CC1`, for which the IC50 came to 43 nM on Monoglyceride lipase [2] and 15 nM on Monoglyceride lipase [3].
In [4], `COc1nn(-c2cccc(Oc3ccccc3)c2)c(=O)o1` came in with an IC50 of 6.1 nM.
Turning to `O=C(NC1CCCCC1)Oc1cccc(-c2ccccc2)c1`, in test [5], half-maximal inhibition (IC50) required 25.6 nM.
Consider `CCCCCCCCCC(=O)N[C@H]1CNC1=O`, for which the IC50 in test [6] turned out to be 240 nM.
In turn, `O=C1C=CC(=O)N1c1ccc2ccc3cccc4ccc1c2c34` gave a half-maximal inhibitory concentration (IC50) at Monoglyceride lipase [7] of 9200 nM.
In test [8], `O=C(NC1CCCCC1)OCc1ncn(Cc2ccccc2)n1` registered an IC50 of 51500 nM.
Consider `CCCCCCCCn1sccc1=O`, for which the IC50 at Monoglyceride lipase [9] stood at 88 nM.
As for `CCN(CC)C(=S)SSC(=S)N(CC)CC`, the IC50 on Monoglyceride lipase [10] was 360 nM.
On to `CCCCCCCCn1sc2ccccc2c1=O`, for which, at Monoglyceride lipase [9], the concentration for half-maximal inhibition (IC50) was 20 nM.
For the molecule `CCCCCCCCCCC(=O)N[C@H]1CNC1=O`, in [6], the IC50 is 100 nM.
Turning to `O=C(N1CCC(=C(c2ccc3c(c2)OCO3)c2ccc3c(c2)OCO3)CC1)n1cncn1`, the 50% inhibitory concentration (IC50) at Monoglyceride lipase [11] was found to be 0.191 nM; on Monoglyceride lipase [12] it was 0.269 nM.
In test [13], `O=C(NCCCCCCCn1nnc(-c2ccccc2)n1)Oc1ccccc1` registered an IC50 of 81 nM.
As to `CCCCCCCC/C=C\CCCCCCCCn1sccc1=O`, at Monoglyceride lipase [9], the IC50 was 43 nM.
Turning to `O=C(NCCCCCCCCn1nnc(-c2ccccc2)n1)Oc1ccccc1`, in [13], the IC50 was 110 nM.
On the same count and under the same terms, to `O=C(NCCCCCCn1nnc(-c2cccc(Cl)c2)n1)Oc1ccccc1` belongs 200 nM.
On to `O=C(Oc1ccc([N+](=O)[O-])cc1)N1CCN(C(c2ccc(F)cc2)c2ccc(F)cc2)CC1`, for which the 50% inhibitory concentration (IC50) is 282 nM against Monoglyceride lipase [11] and 1800 nM at Monoglyceride lipase [12].
In test [4], `COc1nn(-c2ccc(NC(=O)OCc3ccccc3)c(C)c2)c(=O)o1` returned an IC50 of 86 nM.
Consider `O=C(CCCCCCc1ccccc1)c1ncc(-c2ccccn2)o1`, for which, in [14], the IC50 was 13.4 nM.
Consider `O=C(NC1CCCCC1)Oc1ccc(O)c(-c2ccccc2)c1`, for which half-maximal inhibition in [5] (IC50) was put at 30 nM.
Regarding `O=C(N1CCN(C(c2ccc(F)cc2)c2ccc(F)cc2)CC1)n1cncn1`, the IC50 at Monoglyceride lipase [11] was found to be 0.219 nM; against Monoglyceride lipase [12], 1.1 nM.
As to `O=C(CCCCc1ccccc1)c1nc2ncccc2o1`, the Ki in [1] amounted to 0.3 nM.
